Assay results taken from the supplement of paper PMC10307832.

Assays:
Experiment in all cases: relative viability (nuclei count vs DMSO), 5 days (fraction); higher = more cells survive
Ruxolitinib + Dasatinib = compound: N#CC[C@H](C1CCCC1)n1cc(-c2ncnc3[nH]ccc23)cn1 [Ruxolitinib] + Cc1nc(Nc2ncc(C(=O)Nc3c(C)cccc3Cl)s2)cc(N2CCN(CCO)CC2)n1 [Dasatinib] (partner 0.075 µM)
Procedure, shortened: (§1)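 Lung cancer cell lines were seeded in 1536-well plates and dosed by pin tool the next day, with either a single drug or a fixed anchor-drug dose combined with five library-drug doses (not always all listed) spaced in √10 steps. Five days later, one step fixed the cells and stained their nuclei (final 0.05% Triton X-100, 1% formaldehyde, 1 ug/ml Hoechst), and nuclei were counted on 4× images. Relative viability is the nuclei count in treated wells divided by the count in vehicle wells, and each value is the median of duplicate plates.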

Vismodegib + Lapatinib = compound: CS(=O)(=O)c1ccc(C(=O)Nc2ccc(Cl)c(-c3ccccn3)c2)c(Cl)c1 [Vismodegib] + CS(=O)(=O)CCNCc1ccc(-c2ccc3ncnc(Nc4ccc(OCc5cccc(F)c5)c(Cl)c4)c3c2)o1 [Lapatinib] (partner 2 µM)
Procedure, shortened: as §1

Vismodegib + Crizotinib = compound: CS(=O)(=O)c1ccc(C(=O)Nc2ccc(Cl)c(-c3ccccn3)c2)c(Cl)c1 [Vismodegib] + C[C@@H](Oc1cc(-c2cnn(C3CCNCC3)c2)cnc1N)c1c(Cl)ccc(F)c1Cl [Crizotinib] (partner 1 µM)
Procedure, shortened: as §1

Row | Cell Line | relative viability (Ruxolitinib + Dasatinib; first compound 0.08 µM) | relative viability (Ruxolitinib + Dasatinib; first compound 0.253 µM) | relative viability (Ruxolitinib + Dasatinib; first compound 0.8 µM) | relative viability (Ruxolitinib + Dasatinib; first compound 2.53 µM) | relative viability (Ruxolitinib + Dasatinib; first compound 8 µM) | relative viability (Vismodegib + Lapatinib; first compound 0.08 µM) | relative viability (Vismodegib + Lapatinib; first compound 0.253 µM) | relative viability (Vismodegib + Lapatinib; first compound 0.8 µM) | relative viability (Vismodegib + Lapatinib; first compound 2.53 µM) | relative viability (Vismodegib + Lapatinib; first compound 8 µM) | relative viability (Vismodegib + Crizotinib; first compound 0.08 µM) | relative viability (Vismodegib + Crizotinib; first compound 0.253 µM) | relative viability (Vismodegib + Crizotinib; first compound 0.8 µM) | relative viability (Vismodegib + Crizotinib; first compound 2.53 µM) | relative viability (Vismodegib + Crizotinib; first compound 8 µM)
1 | NCI-H661 | 0.964 | 0.872 | 1.03 | 0.695 | 0.498 | 0.464 | 0.488 | 0.534 | 0.483 | 0.493 | 0.961 | 0.94 | 1.05 | 0.93 | 1.01
2 | NCI-H1944 | 0.204 | 0.17 | 0.209 | 0.168 | 0.167 | 0.925 | 0.746 | 0.801 | 0.79 | 0.972 | 0.993 | 1.22 | 1.08 | 1.05 | 1.08
3 | SW 1573 | 0.742 | 0.459 | 0.72 | 0.357 | 0.237 | 0.974 | 1.08 | 1.14 | 0.959 | 1.18 | 0.895 | 0.755 | 0.827 | 0.774 | 0.956
4 | NCI-H1975 | 0.387 | 0.374 | 0.357 | 0.363 | 0.227 | 0.848 | 0.819 | 0.966 | 0.803 | 0.946 | 0.953 | 0.957 | 0.945 | 0.826 | 0.94
5 | EPLC-272H | 0.399 | 0.402 | 0.42 | 0.243 | 0.134 | 0.789 | 0.893 | 0.947 | 0.939 | 0.91 | 0.899 | 0.849 | 0.856 | 0.867 | 1.04
6 | EMC-BAC-2 | 0.321 | 0.283 | 0.308 | 0.275 | 0.219 | 0.891 | 0.857 | 0.839 | 0.933 | 0.9 | 0.768 | 0.797 | 0.72 | 0.73 | 0.796
7 | PC-3 [JPC-3] | 0.684 | 1.06 | 0.989 | 0.872 | 0.883 | 0.486 | 0.467 | 0.394 | 0.447 | 0.475 | 0.93 | 0.991 | 0.964 | 0.93 | 0.956
8 | NCI-H1666 | 0.869 | 0.757 | 0.838 | 0.76 | 0.528 | 0.72 | 0.616 | 0.453 | 0.558 | 0.879 | 0.917 | 0.849 | 1.06 | 1 | 0.948
9 | NCI-H1915 | 0.33 | 0.305 | 0.319 | 0.217 | 0.204 | 0.936 | 0.975 | 0.995 | 0.901 | 0.978 | 0.903 | 0.874 | 0.877 | 0.866 | 0.965
